Key:
Arabidopsis = assay: Flowering-promoting effect in Arabidopsis plant body after direct introduction of florigen; assay type: in vivo
Procedure: A mixed solution prepared by mixing the florigen mHd3a-1 and the cell-penetrating peptide R9 in ten-times diluted PBS in the same manner as in Example 3 was used for treatment of seedling of Arabidopsis at the time of cotyledon expansion about three days after seeding. It should be noted that the shoot apices in seedling of Arabidopsis was exposed at the time of cotyledon expansion. The treatment was carried out at room temperature for 2 days. After that, the mixed solution was washed, and the plants were cultivated on the MS medium under a short-day condition (day length: 10 hours) for from 30 to 40 days to examine the timing of the flowering. The examination condition of the start of the flowering was defined as the start of bolting or a state where differentiation of flower buds was visually observed, and whether the flowering was early or late was evaluated based on the number of rosette leaves at the time when the state described above was achieved. In the case of Arabidopsis, rosette leaves are usually extracted, and the extraction of the rosette leaves is stopped when the flowering is started. When the flowering is started in the early stage, the number of the leaves is small because only a small number of the rosette leaves can be extracted, while when it takes a long time before the flowering is started, the number of the leaves is large because many rosette leaves can be extracted.
FIG. 12 and FIG. 13 show the results. FIG. 12 are photographs taken on day 14 and day 21, when the cultivation start date under the short-day condition is defined as day 0. The enlarged view is one obtained by enlarging the area enclosed by a dashed line in the photograph of a flower bud of an individual treated with the mixed solution of mHd3a-1 and R9, which was taken on day 21. In addition, the numbers in the graph of FIG. 13 represent numbers of individuals that achieved the flowering at each number of leaves. […]

[1] = tested on: Rice radicles, cultured rice cells (rice protoplasts), tobacco leaves, and Arabidopsis leaves; assay: Quantitative efficiency of introduction of GFP by eight cell-penetrating peptides in four tissues; assay type: cell-based; settings: rank among eight cell-penetrating peptides over four tissues (32 treatment groups)
Procedure: Eight kinds of cell-penetrating peptides shown in Table 1 above and GFP were separately mixed in PBS (137 mM NaCl, 2.7 mM KCl, 10 mM Na2HPO4, 1.76 mM KH2PO4) (pH 7.4) so as to achieve a final concentration of 50 μM, and rice radicles were immersed in the mixtures. The eight kinds of cell-penetrating peptides are typical peptides selected from arginine-rich peptides, amphiphilic peptides, and peptides each having an RXLR sequence, and were prepared by chemical synthesis.
The immersion treatment was carried out for 16 hours at room temperature, followed by low-temperature treatment at 4° C. for 4 hours. The samples were washed until fluorescence was not observed in a negative control group treated with GFP alone, and cells were counted under a fluorescence stereomicroscope to calculate ratios of fluorescent cells.
(2) The efficiency of introduction of GFP by the eight kinds of cell-penetrating peptides was examined quantitatively in the same manner as in (1) above. Rice radicles (FIG. 2a), cultured rice cells (rice protoplasts) (FIG. 2b), tobacco leaves (FIG. 2c), and Arabidopsis leaves (FIG. 2d) were used as tissues to be examined. A total of 32 treatment groups were evaluated.

[2] = tested on: rice root epidermal cells; assay: Effect of molar ratio of cell-penetrating peptide to protein on efficiency of introduction of GFP; assay type: cell-based
Procedure: (3) The effect of the molar ratios of the cell-penetrating peptides to the protein on the efficiency of introduction of the protein was examined. The molar ratios of the cell-penetrating peptides (Avr1b and R9) to the protein were changed to 0.01, 0.1, 1, and 10, and the efficiency of introduction of GFP into rice root epidermal cells was evaluated.

[3] = tested on: shoot apical tissues of Arabidopsis; assay: Introduction of florigen into cells of shoot apical tissue of Arabidopsis; assay type: cell-based; settings: mixed solution with R9 as in Example 3
Procedure: (§1) The mHd3a-1 prepared by high level expression in Example 2 was labeled with a fluorochrome FITC. Subsequently, a rice shoot apical tissue was exposed under a stereomicroscope, and the cell-penetrating peptide and the florigen were mixed and used for treatment of the plant tissue in the same manner as in Example 1. A mixed solution was prepared by adding the florigen at a final concentration of 50 μM and the cell-penetrating peptide R9 at a final concentration of 500 μM in PBS (pH 7.4). The mixed solution was added dropwise to the exposed shoot apical tissue to bring the mixed solution into contact with the tissue. The tissue was treated for 16 hours at room temperature.
(§2) In the same manner as in Example 3, the mixed solution of the cell-penetrating peptide and the florigen was added dropwise to shoot apical tissues of corn and Arabidopsis to treat the tissues.

[4] = tested on: shoot apical tissues of corn; assay: Introduction of florigen into cells of shoot apical tissue of corn; assay type: cell-based; settings: mixed solution with R9 as in Example 3
Procedure: as §1, §2

[5] = tested on: flower-bud formation marker gene; assay: Expression of flower-bud formation marker gene after direct introduction of florigen, rice with all florigens inactivated (Hd3a-RFT1 double RNAi); assay type: in vivo; settings: introduced with R9 as in Example 3
Description: (§3) (1) A rice shoot apical tissue into which the florigen was introduced was isolated in the same manner as in Example 3. RNA was extracted from the rice shoot apical tissue by a conventional method, and expression of a flower-bud formation marker gene (OsMADS15 gene) was examined by real-time quantitative RT-PCR (see Non Patent Literature 2 for the method).
(2) Further, rice in which all florigens were inactivated (Hd3a-RFT1 double RNAi) (Komiya et al. (2008) Development 135:767-774) was subjected to the same experiment as in (1).

rice shoot apical tissue = assay: Introduction of FITC-labeled florigen into cell of rice shoot apical tissue; assay type: cell-based; settings: florigen 50 μM, R9 500 μM in PBS (pH 7.4)
Procedure: as §1

[6] = tested on: flower-bud formation marker gene OsMADS15; assay: Florigen function in transient expression system for protoplasts (with OsFD1), RT-PCR; assay type: cell-based; settings: transiently expressed with OsFD1 in protoplasts; compared among five mutated Hd3a's
Description: (2) The florigen functions were examined for mutated Hd3a partial peptides of mHd3a-2F (full-length, having C43L, C109S, and C166S amino acid substitutions) and m-Hd3a-3F (full-length, having K31A, Y136A, and W140A amino acid substitutions) in addition to the mutated Hd3a's examined in (1) above, i.e., mHd3a-1, mHd3a-2T, and mHd3a-3T. The as say system used is a transient expression system for protoplasts. When the mutated Hd3a and a transcription factor OsFD1 are transiently expressed in protoplasts in this system, a flower-bud formation marker gene OsMADS15 is transcriptionally activated if the Hd3a is functional. The transient expression system for protoplasts was constructed according to the method described in Non Patent Literature 2. In addition, the expression of the OsMADS15 gene was examined by RT-PCR method according to the method described in Non Patent Literature 2.

[7] = tested on: APETALA1 (AP1) gene, FRUITFULL (FUL) gene, and SQUAMOSA PROMOTER BINDING-LIKES (SPL3) gene; assay: Induction of expression of flowering-responsive genes in Arabidopsis after direct introduction of florigen, real-time quantitative RT-PCR; assay type: in vivo; settings: shoot apical tissue after 2 weeks cultivation
Description: The florigen was introduced directly into Arabidopsis in the same manner as in Example 6, and then the plants were cultivated for 2 weeks, followed by collection of a shoot apical tissue from each individual. RNA was extracted from the shoot apical tissue collected from each individual, and cDNA was synthesized based on a reverse transcription reaction. After that, the expression levels of APETALA1 (AP1) gene, FRUITFULL (FUL) gene, and SQUAMOSA PROMOTER BINDING-LIKES (SPL3) gene were examined by real-time quantitative RT-PCR (see Yamaguchi et al. Dev. Cell 17:268-278 (2009)).

[8] = Search for florigen capable of high level expression (soluble fractions); settings: recombinant expression of mutated Hd3a
Description: FIG. 5 is a photograph showing mHd3a-1 separated and detected by SDS-PAGE through a conventional method.

[9] = tested on: flower-bud formation marker gene (OsMADS15 gene); assay: Expression of flower-bud formation marker gene after direct introduction of florigen, wild-type rice, real-time quantitative RT-PCR; assay type: in vivo; settings: wild-type rice shoot apical tissue; introduced with R9 as in Example 3
Description: as §3

In the case of “R9: cell-penetrating peptide RRRRRRRRR (SEQ ID NO: 7), arginine-rich, artificially designed sequence (Membrane-permeable peptide R9)”, the “start of the flowering when the number of the leaves was 14 or less (almost all the plants)” value (Arabidopsis; R9 alone, short-day condition) is reported as “did not start the flowering”, the “comprehensive efficiency of introduction of GFP” value [1] is reported as “second highest” and the “change of introduction efficiency as molar ratio increased in the order of 0.01, 0.1, 1, and 10” value ([2]; mixed solution of cell-penetrating peptide and GFP) is reported as “the introduction efficiency increased”. The “increase of efficiency of introduction of GFP, molar ratio 10 versus molar ratio 1” value ([2]; molar ratio of cell-penetrating peptide to protein 10 compared to 1) was 2.5 times.

With “Tat: cell-penetrating peptide YGRKKRRQRRR (SEQ ID NO: 2), arginine-rich, derived from Tat protein of HIV virus (Membrane-permeable peptide Tat)” the “comprehensive efficiency of introduction of GFP” value [1] was “second highest”.

In the case of “mHR: mutated Hd3a incapable of being bound to a receptor (Hd3a R64D F103A R132D), used mixed with R9”, the “effect of promoting the start of the flowering” value (Arabidopsis; used instead of mHd3a-1 in mixed solution with R9, short-day condition) is reported as “not observed”.

With “mHd3a-1: mutated rice Hd3a, full-length, having K31A and E57A amino acid substitutions” the “plants able to start the flowering when the number of the leaves was 14 or less” value (Arabidopsis; Arabidopsis seedlings treated 2 days with mixed solution with R9 in ten-times diluted PBS, short-day condition 30 to 40 days) was “about 30%”, the “introduction into the shoot apical tissue of Arabidopsis” value [3] was “introduced efficiently” and the “localization in the cell of the shoot apical tissue of Arabidopsis” value [3] was “localized accurately in the nucleus”. The “introduction into the shoot apical tissue of corn” value [4] was “introduced efficiently”, the “localization in the cell of the shoot apical tissue of corn” value [4] was “localized accurately in the nucleus” and the “expression of the flower-bud formation marker gene” value [5] was “could activate the expression”. For the same substance, the “localization in the cell of the rice shoot apical tissue” value (rice shoot apical tissue; 16 hours) was “localized accurately in the nucleus”, the “introduction into the rice shoot apical tissue” value (rice shoot apical tissue; 16 hours at room temperature) was “introduced efficiently” and the “activation of transcription of the OsMADS15 gene” value [6] was “most desirably activated”. The “individuals treated in which induction of the expression was observed” value [7] was “about 30%”, the “expression of AP1, FUL and SPL3 genes” value ([7]; eIF4a internal standard) was “activated the expression of the three genes” and the “high level expression and soluble fractions” value [8] was “capable of high level expression and providing soluble fractions”. For the same substance, the “expression of the flower-bud formation marker gene (OsMADS15 gene)” value [9] was “can activate expression”.

For “mHd3a-2T: partial peptide of Hd3a, amino acids at positions from 6 to 170, having C43L, C109S, and C166S substitutions”, the “high level expression and soluble fractions” value [8] was “capable of high level expression and providing soluble fractions”.

For “mHd3a-3T: partial peptide of Hd3a, amino acids at positions from 8 to 170, having K31A, Y136A, and W140A substitutions”, the “high level expression and soluble fractions” value [8] was “capable of high level expression and providing soluble fractions”.

From US20150011393A1, “METHOD FOR INTRODUCING FLORIGEN” (priority 2012, published 2015)
